In patent EP0209237A2, “Vinyl-glycyl-amino-beta-lactam derivatives” (BEECHAM GROUP PLC, priority 1985, dated 1987):
In brackets after ≈: the same amount, converted by molar mass.

Legend:
S.pyogenes CN 10 = assay: Minimum Inhibitory Concentration (MIC), agar dilution; format: cell-based; conditions: 5% v/v horse blood agar, two-fold dilutions, read after 24 hours; unit assumed
Description: (§1) The following Table gives Minimum Inhibitory Concentration (MIC) values for some of the compounds of the invention against S.pyogenes CN 10 and E.coli NCTC 10418. The E. coli was grown in tryptone soya broth and the S. pyogenes was grown in Todd Hewitt broth. The microorganisms were grown for 24hours and lul samples were then inoculated on to agar plates (comprising 5% v/v live horse blood agar) to which had been added the compounds of the invention at a series of two-fold dilutions.

E.coli NCTC 10418 = assay: as above; format: cell-based; conditions: 5% v/v horse blood agar, two-fold dilutions, read after 24 hours; unit assumed
Description: as §1

Row | MIC S. pyogenes CN 10 (S.pyogenes CN 10) [µg/mL] | MIC E. coli NCTC 10418 (E.coli NCTC 10418) [µg/mL] | Compound
1 | < 0.06 | 4 (≈ 12.2 µM) | CC/C=C/[C@@H](N)C(=O)N[C@@H]1C(=O)N2[C@@H]1SC(C)(C)[C@@H]2C(=O)O [Example 13 (D-stereoisomer), 6p-(D-2-aminohex-3(E)-enamido)penicillanic acid]
2 | < 0.06 | 16 (≈ 41.9 µM) | CC1(C)S[C@@H]2[C@H](NC(=O)[C@H](N)/C=C/C3CCCCC3)C(=O)N2[C@H]1C(=O)O [Example 14 (D-stereoisomer), 6β-(D-2-amino-4-cyclohexylbut-3(E)-enamido)penicillanic acid]
3 | < 0.03 | 16 (≈ 38.5 µM) | CC1(C)S[C@@H]2[C@H](NC(=O)C(N)/C(=C/Cl)c3cccs3)C(=O)N2[C@H]1C(=O)O (stereo partly drawn) [Example 19, 6β-(D,L-2-Amino-4-chloro-3-thien-2-ylbut-3(Z)-enamido)penicillanic acid]
4 | 0.06 (≈ 0.144 µM) | 32 (≈ 76.9 µM) | CC1(C)S[C@@H]2[C@H](NC(=O)C(N)/C(=C\Cl)c3cccs3)C(=O)N2[C@H]1C(=O)O (stereo partly drawn) [Example 20, 6B-(D,L-2-Amino-4-chloro-3-thien-2-ylbut-3(E)-enamido)penicillanic acid]
5 | 0.12 (≈ 0.345 µM) | 8 (≈ 23 µM) | C/C(=C/Cl)C(N)C(=O)N[C@@H]1C(=O)N2[C@@H]1SC(C)(C)[C@@H]2C(=O)O (stereo partly drawn) [Example 22, 6β-(D,L-2-Amino-4-chloro-3-methylbut-3(Z)-enamido) penicillanic acid]

Further lines, the molecule ahead of its results:

Row | Compound | MIC S. pyogenes CN 10 (S.pyogenes CN 10) [µg/mL] | MIC E. coli NCTC 10418 (E.coli NCTC 10418) [µg/mL]
6 | CC1(C)S[C@@H]2[C@H](NC(=O)[C@H](N)/C=C/c3ccccc3)C(=O)N2[C@H]1C(=O)O [Example 15 (D-stereoisomer), 6p-(D-2-amino-4-phenylbut-3(E)enamido)penicillanic acid] | < 0.06 | 16 (≈ 42.6 µM)
7 | CC1(C)S[C@@H]2[C@H](NC(=O)C(N)/C=C/c3ccc(Cl)cc3)C(=O)N2[C@H]1C(=O)O (stereo partly drawn) [Example 16, 6β-[D,L-2--Amino-4-(4-chlorophenyl)but-3(E)-enamido]penicillanic acid] | < 0.06 | 16 (≈ 39 µM)
8 | C=C([C@@H](N)C(=O)N[C@@H]1C(=O)N2[C@@H]1SC(C)(C)[C@@H]2C(=O)O)C(F)(F)F [Example 17 (D-stereoisomer), 6,P-(D-2-amino-3-trifluoromethylbut-3-enamido)penicillanic acid] | < 0.06 | 4 (≈ 10.9 µM)
9 | C=C(c1cccs1)[C@@H](N)C(=O)N[C@@H]1C(=O)N2[C@@H]1SC(C)(C)[C@@H]2C(=O)O [Example 18 (D-stereoisomer), 6β-(D-2-amino-3-thien-2-yl-but-3-enamido)penicillanic acid] | 0.06 (≈ 0.157 µM) | 16 (≈ 41.9 µM)
10 | C/C(=C\Cl)[C@@H](N)C(=O)N[C@@H]1C(=O)N2[C@@H]1SC(C)(C)[C@@H]2C(=O)O [Example 21 (D-stereoisomer), 6β-(D-2-Amino-4-chloro-3-methylbut-3(E)-enamido)-penicillanic acid] | 0.06 (≈ 0.173 µM) | 4 (≈ 11.5 µM)
11 | CC(=O)OC/C=C/[C@@H](N)C(=O)N[C@@H]1C(=O)N2[C@@H]1SC(C)(C)[C@@H]2C(=O)O [Example 23, 6β-[5-Acetoxy-D-2-aminopent-3(E)-enamido] penicillanic acid] | 0.12 (≈ 0.323 µM) | 32 (≈ 86.2 µM)
